Measured values from patent publication US10975037B2 (priority 2018, dated 2021).
Read-outs that look alike come from different tables or passages of the source. Blank lines part the entries; values can stand above or below the molecule they belong to.

Target: full-length human RORγt (Homo sapiens (Human), UniProt P51449)
Assay: RORγt (full-length human) reporter assay, conditions A or B, HEK293T cells
Type: cell-based
Conditions: HEK-293T, read-out: RORγt (FL) Reporter Assay A or B, % inhibition; for inhibition at 1 µM: 1 μM compound concentration (footnote ***)
Procedure: RORγt (Full-Length Human) Reporter Assay:
(§1) HEK293T cells were plated at 35,000 per well in 96-well plate in medium of DMEM with 10% FBS. […] After overnight (16 to 20 hours) incubation, media were removed and cells were lysed with 50 L Glo Lysis Buffer (Promega) for 10-15 minutes followed by 10 minute incubation with 50 μL Dual Glo reagent (Promega) at room temperature. Firefly luciferase luminescence was measured using a BMG Pherastar plate reader. To each well, 50 μL Stop and Glo reagent was added and incubated for 10 minutes at room temperature. Renilla luminescence was measured using a BMG Pherastar plate reader. To calculate the effect of compounds on RORγt activity, firefly values were normalized against values of DMSO only and values of reference compound at saturating concentration, then further normalized against Renilla signals. IC50s were generated by plotting final Renilla normalized data against compound concentration and percent inhibition was calculated against DMSO control.
as §1, with “at 8750 cells” for “at 35,000”, “in 384-well” for “in 96-well”, “with 20” for “with 50”, “well, 20” for “well, 50”

[1] = 3 μM compound concentration (footnote *)

Chain of full-length human RORγt (P51449 other isoform, or with tags, fused parts or gaps): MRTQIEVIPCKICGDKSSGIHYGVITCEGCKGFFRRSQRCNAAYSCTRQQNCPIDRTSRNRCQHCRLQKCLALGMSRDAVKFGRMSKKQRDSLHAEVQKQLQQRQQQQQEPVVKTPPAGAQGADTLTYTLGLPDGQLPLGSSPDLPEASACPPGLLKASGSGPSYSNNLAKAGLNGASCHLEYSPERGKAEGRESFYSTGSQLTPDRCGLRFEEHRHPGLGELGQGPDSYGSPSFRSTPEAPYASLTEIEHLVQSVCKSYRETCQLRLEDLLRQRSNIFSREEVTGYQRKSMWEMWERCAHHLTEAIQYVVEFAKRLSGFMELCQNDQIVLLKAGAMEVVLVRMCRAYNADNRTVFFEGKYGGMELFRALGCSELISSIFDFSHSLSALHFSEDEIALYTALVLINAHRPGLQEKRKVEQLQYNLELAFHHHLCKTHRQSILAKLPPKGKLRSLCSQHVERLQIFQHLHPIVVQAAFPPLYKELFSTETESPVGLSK

inhibition at 3 µM [1]: 107%
SMILES: CCn1nc(C(=O)NC[C@]2(O)CC[C@@H](S(C)(=O)=O)CC2)c(Cl)c1-c1ccc([C@](C)(O)CCC(F)(F)F)cc1OC(F)F (relative stereo) [Example 103, 4-Chloro-5-(2-(difluoromethoxy)-4-((R*)-5-trifluoro-2-hydroxypentan-2-yl)phenyl)-1-ethyl-N-(((1s,4S)-1-hydroxy-4-(methylsulfonyl)cyclohexyl)methyl)-1H-pyrazole-3-carboxamide]

inhibition at 0.67 µM (0.67 μM compound concentration (footnote ****)): 97%
SMILES: CCn1nc(C(=O)NC[C@]2(O)CC[C@@H](S(C)(=O)=O)CC2)c(Cl)c1-c1ccc(C[C@H](C)C(F)(F)F)cc1OC (single isomer, unassigned) [Example 37, 4-Chloro-1-ethyl-N-(((1s,4R)-1-hydroxy-4-(methylsulfonyl)cyclohexyl)methyl)-5-(2-methoxy-4-((S*)-3,3,3-trifluoro-2-methylpropyl)phenyl)-1H-pyrazole-3-carboxamide]

inhibition at 3 µM [1]: 85%
SMILES: CCn1nc(C(=O)NC[C@]2(O)CC[C@@H](S(C)(=O)=O)CC2)c(Cl)c1-c1ccc([C@@](C)(O)CCC(F)(F)F)cc1OC(F)F (single isomer, unassigned) [Example 102, 4-Chloro-5-(2-(difluoromethoxy)-4-((S*)-5,5,5-trifluoro-2-hydroxypentan-2-yl)phenyl)-1-ethyl-N-(((1s,4R)-1-hydroxy-4-(methylsulfonyl)cyclohexyl)methyl)-1H-pyrazole-3-carboxamide]

inhibition at 3 µM: 104%
SMILES: CCn1nc(C(=O)NC[C@]2(O)CC[C@@H](S(C)(=O)=O)CC2)c(Cl)c1-c1ccc([C@H](O)C(C)(C)C(F)(F)F)cc1OC(F)F (single isomer, unassigned) [Example 107, 4-Chloro-5-(2-(difluoromethoxy)-4-((S*)-3,3,3-trifluoro-1-hydroxy-2,2-dimethylpropyl)phenyl)-1-ethyl-N-(((1s,4R)-1-hydroxy-4-(methylsulfonyl)cyclohexyl)methyl)-1H-pyrazole-3-carboxamide]

inhibition at 3 µM [1]: 92%
SMILES: CCn1nc(C(=O)NC[C@]2(O)CC[C@@H](S(C)(=O)=O)CC2)c(Cl)c1-c1ccc([C@@H](O)C(C)(C)C(F)(F)F)cc1OC(F)F (single isomer, unassigned) [Example 108, 4-Chloro-5-(2-(difluoromethoxy)-4-((R*)-3,3,3-trifluoro-1-hydroxy-2,2-dimethylpropyl)phenyl)-1-ethyl-N-(((1s,4S)-1-hydroxy-4-(methylsulfonyl)cyclohexyl)methyl)-1H-pyrazole-3-carboxamide]

inhibition at 1 µM: 75%
SMILES: CCn1nc(C(=O)NC[C@]2(O)CC[C@@H](S(C)(=O)=O)CC2)c(Cl)c1-c1ccc([C@H](O)C2(C(F)(F)F)CC2)cc1OC(F)F (single isomer, unassigned) [Example 110, 4-Chloro-5-(2-(difluoromethoxy)-4-((S*)-hydroxy(1-(trifluoromethyl)cyclopropyl)methyl)phenyl)-1-ethyl-N-(((1s,4R)-1-hydroxy-4-(methylsulfonyl)cyclohexyl)methyl)-1H-pyrazole-3-carboxamide]

inhibition at 1 µM: 95%
SMILES: CCn1nc(C(=O)NC[C@]2(O)CC[C@@H](S(C)(=O)=O)CC2)c(Cl)c1-c1ccc([C@@H](O)C2(C(F)(F)F)CC2)cc1OC(F)F (single isomer, unassigned) [Example 111, 4-Chloro-5-(2-(difluoromethoxy)-4-((R*)-hydroxy(1-(trifluoromethyl)cyclopropyl)methyl)phenyl)-1-ethyl-N-(((1s,4S)-1-hydroxy-4-(methylsulfonyl)cyclohexyl)methyl)-1H-pyrazole-3-carboxamide]

inhibition at 2 µM (2 μM compound concentration): 77%
SMILES: CCn1nc(C(=O)NC[C@H]2CC[C@H](S(C)(=O)=O)CC2)c(Cl)c1-c1ccc(OC[C@@H]2CC2(F)F)cc1OC (single isomer, unassigned) [Example 210, 4-Chloro-5-(4-(((S*)-2,2-difluorocyclopropyl)methoxy)-2-methoxyphenyl)-1-ethyl-N-(((1r,4R)-4-(methylsulfonyl)cyclohexyl)methyl)-1H-pyrazole-3-carboxamide]
